According to ChEMBL document CHEMBL1155939, “Baicalin, a prodrug able to reach the CNS, is a prolyl oligopeptidase inhibitor” (Bioorg Med Chem, 2008):

Target: T1, Prolyl endopeptidase (Homo sapiens, UniProt P48147)
T1 sequence (P48147 whole entry): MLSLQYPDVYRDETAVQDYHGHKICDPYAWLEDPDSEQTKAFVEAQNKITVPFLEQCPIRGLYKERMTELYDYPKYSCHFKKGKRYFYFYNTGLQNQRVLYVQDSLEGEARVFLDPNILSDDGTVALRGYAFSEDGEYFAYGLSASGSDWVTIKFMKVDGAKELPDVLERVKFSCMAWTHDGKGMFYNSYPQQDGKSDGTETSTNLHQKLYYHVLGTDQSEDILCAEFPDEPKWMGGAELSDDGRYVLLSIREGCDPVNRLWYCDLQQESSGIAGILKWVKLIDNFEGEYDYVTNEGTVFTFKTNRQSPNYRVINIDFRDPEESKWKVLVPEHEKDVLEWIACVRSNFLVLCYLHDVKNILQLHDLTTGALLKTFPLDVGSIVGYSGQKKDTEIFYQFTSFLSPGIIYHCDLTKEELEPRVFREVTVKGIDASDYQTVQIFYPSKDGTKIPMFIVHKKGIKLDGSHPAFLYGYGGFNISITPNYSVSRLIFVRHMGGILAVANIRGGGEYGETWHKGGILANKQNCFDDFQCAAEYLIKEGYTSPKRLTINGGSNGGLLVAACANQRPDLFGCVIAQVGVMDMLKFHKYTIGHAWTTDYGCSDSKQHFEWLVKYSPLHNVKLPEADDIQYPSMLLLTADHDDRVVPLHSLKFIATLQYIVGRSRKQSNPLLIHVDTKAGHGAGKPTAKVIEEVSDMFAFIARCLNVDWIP
Assay: Inhibition of human brain prolyl oligopeptidase expressed in Escherichia coli

Structure (SMILES)	IC50 [µM]
O=c1c(O)c(-c2ccc(O)cc2)oc2cc(O)cc(O)c12 [KAEMPFEROL]	> 200
O=c1c(O)c(-c2ccc(O)c(O)c2)oc2cc(O)cc(O)c12 [QUERCETIN]	13
O=c1c(O)c(-c2ccccc2)oc2cc(O)ccc12 [3,7-DIHYDROXYFLAVONE]	> 200
C[C@@H]1O[C@@H](OC[C@H]2O[C@@H](Oc3c(-c4ccc(O)c(O)c4)oc4cc(O)cc(O)c4c3=O)[C@H](O)[C@@H](O)[C@@H]2O)[C@H](O)[C@H](O)[C@H]1O [RUTIN]	> 200
